Laboratory results taken from US20240018211A1, “EXOSOME COMPRISING OVEREXPRESSED FC RECEPTOR OR PORTION THEREOF, AND METHOD FOR PREPARING SAME” (EXOCOBIO INC, priority 2021, published 2024).

Test system: MDA-MB-231 human breast cancer cell line
Details: MDA-MB-231, 10,000 cells/well; same amount of doxorubicin; exosomes 2.56×10^11 particles/mL; FIG. 11

With COc1cccc2c1C(=O)c1c(O)c3c(c(O)c1C2=O)C[C@@](O)(C(=O)CO)C[C@@H]3O[C@H]1C[C@H](N)[C@H](O)[C@H](C)O1 [doxorubicin] the “growth of the breast cancer cells” value was “inhibited the growth of the breast cancer cells”.
